Where a name gives a salt, the structure may show the parent alone.
How the values were obtained:
[1] = tested on: PAF-Induced Platelet Aggregation; experiment: Inhibitory Action on PAF-Induced Platelet Aggregation; type: cell-based, New Zealand white male rabbits; settings: Oryctolagus cuniculus, Drug Concentration: 3 × 10^-5 M, rabbit PRP
Description: Blood was collected from the hearts of conscious New Zealand white male rabbits weighing 2 to 3 kg using citric acid as an anticoagulant (one volume part of 3.15% citric acid per 9 volume parts of the whole blood). The blood was subjected to a centrifuge at 800 rpm for ten minutes to obtain platelet rich plasma (PRP). The remaining blood after collecting the PRP was subjected to a centrifuge at 3000 rpm for ten minutes to obtain platelet poor plasma (PPP). PRP was diluted with PPP, and the number of platelets was adjusted to 500,000/μl. Platelet aggregation was examined by means of turbidimetry [Born, Nature, 194, 927-929 (1962)] with 8 channel aggregometer (NBS HEMA TRACER 6 Nikoh, Bioscience, Japan). More concretely, PRP (250 μl) was kept warm (37° C.) for three minutes in a silicon-processed cuvette, to which was added a test sample (25 μl) dissolved in a physiological saline or in 10mM dimethylsulfoxide followed by dilution with a physiological saline. Two minutes later, PAF (25 μl, 3×10^-9 -1×10^-8 M), dissolved in a physiological saline, was added and then the maximum aggregation rate was determined. As the control, physiological saline without test sample was added to the cuvette, and the inhibitory rate thereon was determined.

PAF-Induced Hypotension = experiment: Inhibitory Action on PAF-Induced Hypotension; type: in vivo, SD (Jcl) male rats; settings: po, 30 mg/kg p.o., rat
Description: SD (Jcl) male rats of 6 to 8 week old were subjected to the experiment. After fasting overnight, the rats were cannulated into the femoral artery and vein under anesthesia with pentobarbital. A transducer (MPU-0.5-290O-III, TOYO BALDWIN, Japan) was connected with the artery cannula, and blood pressure was continuously measured. […] The rate of inhibition of lowering of blood pressure after administration of the test samples against the control was evaluated.

| Structure (SMILES) | inhibition at 30 µM [1] | inhibition in vivo at 30 mg/kg (PAF-Induced Hypotension; after 1 hr) | inhibition in vivo at 30 mg/kg (PAF-Induced Hypotension; after 2 hrs) | inhibition in vivo at 30 mg/kg (PAF-Induced Hypotension; after 4 hrs) |
| --- | --- | --- | --- | --- |
| CCCOc1cc2c(cc1OCCC)CCC(C(=O)N1CCN(Cc3cc(OC)c(OC)c(OC)c3)CC1)=C2 [Example 60, 1-(6,7-dipropoxy-1,2-dihydro-3-naphthoyl)-4-(3,4,5-trimethoxybenzyl)-piperazine hydrochloride] | 100% | 79% | 69% | 60% |
| CCOc1cc2c(cc1OCC)CCC(C(=O)N1CCN(C(=O)c3cc(OC)c(OC)c(OC)c3)CC1)=C2 [Example 65, 1-(6,7-diethoxy-1,2-dihydro-3-naphthoyl)-4-(3,4,5-trimethoxybenzoyl)piperazine] | 100% | 100% | 100% | 77% |
| CCCOc1cc2c(cc1OCCC)CCC(C(=O)N1CCN(C(=O)c3cc(OC)c(OC)c(OC)c3)CC1)=C2 [Example 66, 1-(6,7-dipropoxy-1,2-dihydro-3-naphthoyl)-4-(3,4,5-trimethoxybenzoyl)piperazine] | 100% | 77% | 79% | 68% |
| CCOc1cc2c(cc1OCC)CCCC(C(=O)N1CCN(Cc3cc(OC)c(OC)c(OC)c3)CC1)=C2 [Example 72, 1-(2,3-diethoxy-6,7-dihydro-5H-benzocyclohepten-8-ylcarbonyl)-4-(3,4,5-trimethoxybenzyl)piperazine hydrochloride] | 100% | 98% | 99% | 75% |
| COc1cc2c(cc1OC)CCCCC(C(=O)N1CCN(Cc3cc(OC)c(OC)c(OC)c3)CC1)=C2 [Example 84, 1-(2,3-dimethoxy-5,6,7,8-tetrahydrobenzocycloocten-9-ylcarbonyl)-1-(3,4,5-trimethoxybenzyl)piperazine hydrochloride] | 100% | 100% | 100% | 73% |
| COc1cc2c(cc1OC)CCCCC(C(=O)N1CCN(C(=O)c3cc(OC)c(OC)c(OC)c3)CC1)=C2 [Example 85, 1-(2,3-dimethoxy-5,6,7,8-tetrahydrobenzocycloocten-9-ylcarbonyl)-4-(3,4,5-trimethoxybenzoyl)piperazine] | 100% | 100% | 100% | 100% |

Reference: patent US4880809A, “1,4-disubstituted piperazines (or homopiperazines) as platelet-activating factor antagonists” (Takeda Chemical Industries, Ltd., priority 1987, dated 1989)
